# Assay results from PubChem BioAssay (NCI).
#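 GI50 marks 50% less growth. TGI: total growth inhibition.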
# What was measured:
# Assay in all cases: NCI anticancer screen, dose series, 384-well format
# [1] = system: K-562 leukemia
# [2] = system: M14 melanoma
# [3] = system: HCT-15 colon
# [4] = system: HOP-92 NSCLC
# [5] = system: MDA-MB-435 melanoma
# [6] = system: MDA-MB-468 breast
# [7] = system: A498 renal
# [8] = system: TK-10 renal
# [9] = system: NCI/ADR-RES ovarian
# [10] = system: RPMI-8226 leukemia
# [11] = system: PC-3 prostate
# [12] = system: SF-268 CNS
# [13] = system: DU-145 prostate
# [14] = system: 786-0 renal
# [15] = system: KM12 colon
# [16] = system: A549 NSCLC
# [17] = system: HS 578T breast
# [18] = system: OVCAR-4 ovarian
# [19] = system: BT-549 breast
# [20] = system: SF-295 CNS
# [21] = system: NCI-H226 lung
# [22] = system: HCT-116 colon
# [23] = system: SK-MEL-5 melanoma
# [24] = system: SR leukemia
# [25] = system: SW-620 colon
# [26] = system: MOLT-4 leukemia
# [27] = system: NCI-H522 lung
# [28] = system: RXF 393 renal
# [29] = system: CAKI-1 renal
# [30] = system: MDA-MB-231 breast
# [31] = system: NCI-H460 NSCLC
# [32] = system: SK-OV-3 ovarian
# [33] = system: SNB-19 CNS
# [34] = system: SNB-75 CNS
# [35] = system: CCRF-CEM leukemia
# [36] = system: U251 glioblastoma
# [37] = system: SN12C renal
# [38] = system: SK-MEL-28 melanoma
# [39] = system: HT29 colon
# [40] = system: OVCAR-5 ovarian
# [41] = system: ACHN renal
# [42] = system: HOP-62 NSCLC
# [43] = system: LOX IMVI melanoma
# [44] = system: UACC-62 melanoma
# [45] = system: SF-539 CNS
# [46] = system: EKVX NSCLC
# [47] = system: T-47D breast
smiles,measurement,setting,value
CC(C)[C@](O)(c1ccc2cc(OC(F)F)c(OC(F)F)cc2c1)c1cn[nH]n1,GI50,[1],11 µM
same,TGI,[1],23.5 µM
same,GI50,[2],17.6 µM
same,TGI,[2],31.6 µM
same,GI50,[3],14.4 µM
same,TGI,[3],27.8 µM
same,GI50,[4],16.7 µM
same,TGI,[4],30.4 µM
same,GI50,[5],16.9 µM
same,TGI,[5],31.3 µM
same,GI50,[6],10.3 µM
same,TGI,[6],27.7 µM
same,GI50,[7],17.5 µM
same,TGI,[7],31.8 µM
same,GI50,[8],14.7 µM
same,TGI,[8],30.2 µM
same,GI50,[9],18.7 µM
same,TGI,[9],33.8 µM
same,GI50,[10],9.27 µM
same,TGI,[10],22.5 µM
same,GI50,[11],15.9 µM
same,TGI,[11],30.3 µM
same,GI50,[12],16.5 µM
same,TGI,[12],30.6 µM
same,GI50,[13],16.5 µM
same,TGI,[13],32.8 µM
same,GI50,[14],16.2 µM
same,TGI,[14],30.3 µM
same,GI50,[15],15 µM
same,TGI,[15],28.6 µM
same,GI50,[16],17.4 µM
same,TGI,[16],44.8 µM
same,GI50,[17],12.3 µM
same,TGI,[17],24.8 µM
same,GI50,[18],13.6 µM
same,TGI,[18],33.1 µM
same,GI50,[19],14.6 µM
same,TGI,[19],27.9 µM
same,GI50,[20],15 µM
same,TGI,[20],28.7 µM
same,GI50,[21],21 µM
same,TGI,[21],36 µM
same,GI50,[22],13.6 µM
same,TGI,[22],26.9 µM
same,GI50,[23],13.1 µM
same,TGI,[23],25.9 µM
same,GI50,[24],3.91 µM
same,TGI,[24],13.6 µM
same,GI50,[25],15.2 µM
same,TGI,[25],28.8 µM
same,GI50,[26],11.3 µM
same,TGI,[26],23.5 µM
same,GI50,[27],13.6 µM
same,TGI,[27],27.7 µM
same,GI50,[28],13.8 µM
same,TGI,[28],28.3 µM
same,GI50,[29],15.7 µM
same,TGI,[29],32.3 µM
same,GI50,[30],13.2 µM
same,TGI,[30],26.3 µM
same,GI50,[31],16.6 µM
same,TGI,[31],30.5 µM
same,GI50,[32],15.4 µM
same,TGI,[32],29.5 µM
same,GI50,[33],17.8 µM
same,TGI,[33],32.2 µM
same,GI50,[34],14.9 µM
same,TGI,[34],29.5 µM
same,GI50,[35],12.3 µM
same,TGI,[35],24.8 µM
same,GI50,[36],16.7 µM
same,TGI,[36],30.5 µM
same,GI50,[37],14.9 µM
same,TGI,[37],28.2 µM
same,GI50,[38],17.2 µM
same,TGI,[38],31.5 µM
same,GI50,[39],16 µM
same,TGI,[39],29.8 µM
same,GI50,[40],17.3 µM
same,TGI,[40],38.2 µM
same,GI50,[41],25.5 µM
same,TGI,[41],59.8 µM
same,GI50,[42],16.3 µM
same,TGI,[42],30 µM
same,GI50,[43],17.3 µM
same,TGI,[43],31.2 µM
same,GI50,[44],16.4 µM
same,TGI,[44],30 µM
same,GI50,[45],16.8 µM
same,TGI,[45],30.5 µM
same,GI50,[46],13.1 µM
same,TGI,[46],28.8 µM
same,GI50,[47],10.9 µM
same,TGI,[47],38.2 µM
